Peptide text beside a SMILES is read from it.
Key:
[1] = tested on: anti-progesterone mAb clone 1E11; assay: RIA: competition with [3H]-progesterone for anti-progesterone clone 1E11; design: species or system mouse; conditions: FIG. 4, read-out: IC50, competition with [3H]-progesterone for binding sites of anti-progesterone clone 1E11
Excerpt: In order to confirm the specific binding activity of the peptides 3 and 4 for the anti-progesterone mnAb clone 1E11, a RIA system where the peptides competed with [^3H]-progesterone for the binding sites of clone 1E11 was used. […]

[2] = tested on: creatine kinase (CK) specific activity in rat tissues; assay: Stimulation of creatine kinase specific activity in rat tissues in vivo; conditions: for Creatine kinase specific activity (Experimental/control), Aorta / Creatine kinase specific activity (Experimental/control), Diapysis / Creatine kinase specific activity (Experimental/control), Epipysis / Creatine kinase specific activity (Experimental/control), LV (left ventricle) / Creatine kinase specific activity (Experimental/control), Uterus: four hours after treatment, peptides and raloxifene 0.5 mg/rat, mean ± S.E.M., n=15
Method: The control goups received 0.5 ml saline containing 0.5% ethanol or tris-saline alone. The various organs were assayed for CK activity four hours after treatment.

[3] = tested on: anti-progesterone, clone 1E11, anti-estriol, clone 9B4, anti-testosterone, clone 5F2; assay: ELISA: competition with solid phase hapten protein conjugates for homologous anti-steroidal antibodies; format: binding; conditions: data not shown
Excerpt: (§1) ELISA methodology was used first for the initial screening of the various peptides for antibody binding specificity.

anti-E2, clone 15 = assay: ELISA: competition with solid-phase estradiol ovalbumin conjugate for anti-E2 clone 15; format: binding, mouse
Excerpt: as §1

ER β = ER β (Homo sapiens, UniProt Q92731); assay: Receptor binding assay for estrogen receptor beta
Sequence of ER β (Q92731 whole entry, species assumed): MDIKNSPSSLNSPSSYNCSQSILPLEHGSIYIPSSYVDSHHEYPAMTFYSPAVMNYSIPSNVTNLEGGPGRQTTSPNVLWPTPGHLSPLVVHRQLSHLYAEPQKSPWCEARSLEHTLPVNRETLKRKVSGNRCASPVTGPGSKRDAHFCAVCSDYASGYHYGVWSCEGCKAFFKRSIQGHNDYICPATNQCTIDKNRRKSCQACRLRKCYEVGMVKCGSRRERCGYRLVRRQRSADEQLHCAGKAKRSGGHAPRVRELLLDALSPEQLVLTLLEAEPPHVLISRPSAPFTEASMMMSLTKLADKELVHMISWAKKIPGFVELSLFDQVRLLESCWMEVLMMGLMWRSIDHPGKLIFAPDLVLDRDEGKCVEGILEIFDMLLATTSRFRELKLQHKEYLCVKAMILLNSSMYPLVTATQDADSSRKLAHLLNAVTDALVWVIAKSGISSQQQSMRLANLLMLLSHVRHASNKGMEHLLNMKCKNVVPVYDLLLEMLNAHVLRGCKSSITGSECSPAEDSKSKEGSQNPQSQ

[4] = tested on: anti-E2 antibodies, clones 8D9, 11B6 and 2F9; assay: ELISA: competition with solid-phase estradiol ovalbumin conjugate for other high affinity anti-E2 antibodies; format: binding; conditions: peptide at 0.5 mM
Excerpt: as §1

[5] = target: anti-estradiol mAb clone 15; assay: Competitive immunoassay: inhibition of binding of labeled E2 (estradiol ovalbumin europium conjugate) to anti-E2 clone 15; design: species or system mouse; conditions: Table 5; estradiol ovalbumin europium conjugate
Excerpt: […]. The linear peptide 1 is 15-amino acid long. We further explored the possibility whether smaller peptides derived from peptide 1 may have antibody binding activity and receptor binding activity. In order to find out the minimum amino acid sequence required in the linear peptide 1 for antibody and receptor binding, several peptides with varying length of from 4 to 14 amino acids long were synthesized, and were first evaluated in terms of binding to anti-estradiol (E2) mAb clone 15. The peptides showing similar or better antibody binding activity than the linear peptide 1 were further evaluated in terms of binding to ERα and β.

[6] = target: anti-estradiol mAb, clone 15; assay: Competitive binding radioimmunoassay with [3H]-estradiol; design: species or system mouse; conditions: RIA, FIG. 1; read-out: IC50, competition with [3H]-estradiol for binding sites of anti-estradiol mAb clone 15
[7] = immature female rats, estradiol 5 μg/rat

Row | Compound | IC50 [1] [µM] | Creatine kinase specific activity (Experimental/control), Aorta [2, 7] | Creatine kinase specific activity (Experimental/control), Diapysis [2, 7] | Creatine kinase specific activity (Experimental/control), Epipysis [2, 7] | Creatine kinase specific activity (Experimental/control), LV (left ventricle) [2, 7] | Creatine kinase specific activity (Experimental/control), Uterus [2, 7] | further results
1 | CC(C)[C@H](NC(=O)[C@H](Cc1c[nH]cn1)NC(=O)[C@@H]1CSSC[C@H](NC(=O)[C@H](Cc2ccccc2)NC(=O)[C@@H]2CCCN2C(=O)[C@H](CC(N)=O)NC(=O)[C@@H](N)CO)C(=O)N[C@@H](CCC(N)=O)C(=O)N[C@@H]([C@@H](C)O)C(=O)N[C@@H](CC(=O)O)C(=O)NCC(=O)N[C@@H](CC(=O)O)C(=O)N1)C(=O)N[C@@H](Cc1c[nH]cn1)C(=O)N[C@H](C(=O)O)[C@@H](C)O [Peptide 4] (HELM PEPTIDE1{S.N.P.F.C.Q.T.D.G.D.C.H.V.H.T}$PEPTIDE1,PEPTIDE1,5:R3-11:R3$$$V2.0; N-terminus and C-terminus assumed; bridges inferred) | ~5 |  |  |  |  |  | 
2 | CC(C)C[C@H](NC(=O)[C@H](C)NC(=O)[C@@H]1CCCN1C(=O)[C@@H](N)CC(C)C)C(=O)N[C@@H](CC(=O)O)C(=O)N1CCC[C@H]1C(=O)N[C@H](C(=O)N[C@@H](CCCCN)C(=O)N[C@@H](CCCNC(=N)N)C(=O)N[C@@H](Cc1c[nH]c2ccccc12)C(=O)N[C@@H](Cc1ccccc1)C(=O)N[C@@H](Cc1ccccc1)C(=O)N[C@@H](CCC(=O)O)C(=O)N[C@H](C(=O)N[C@@H](CCCCN)C(=O)O)[C@@H](C)O)[C@@H](C)O [Peptide 1] (H-LPALDPTKRWFFETK-OH; N-terminus and C-terminus assumed) |  | 1.35 ± 0.23 | 1.09 ± 0.17 | 1.10 ± 0.09 | 1.41 ± 03 | 1.6 ± 0.27 | stimulation of CK activity in rat tissues ([2]; higher concentration 2.5 mg/rat, data not shown): stimulated the CK activity in the epiphysis and aorta as well; increase in the specific activity of creatine kinase (CK) in rat tissues ([2]; immature female rats, 4 hours, estradiol 5 μg/rat, peptides 0.5 mg/rat): increase in CK activity only in the uterus and left ventricle; competing with solid phase hapten protein conjugates for the binding sites of homologous anti-steroidal antibodies [3]: not capable of competing; inhibition of the binding of immobilized estradiol ovalbumin conjugate to anti-E2, clone 15 (anti-E2, clone 15; ELISA, peptide at a concentration of 0.5 mM): 36%; recognition of anti-E2 mAb clone 15 (anti-E2, clone 15; initial binding studies): recognized; binding to ER β (ER β; FIG. 3): none; IC50 to ERβ (ER β; Table 5): none; inhibition of the binding of immobilized estradiol ovalbumin conjugate to other high affinity anti-E2 antibodies [4]: not; IC50 [5]: 1 µM; IC50 [6]: ~5 µM
3 | C[C@]12CC[C@@H]3c4ccc(O)cc4CC[C@H]3[C@@H]1CC[C@@H]2O [Estradiol, estradiol] |  | 2.0 ± 0.18 | 1.87 ± 0.1 | 1.37 ± 0.07 |  | 1.37 ± 0.07 | 
4 | O=C(c1ccc(OCCN2CCCCC2)cc1)c1c(-c2ccc(O)cc2)sc2cc(O)ccc12 [Raloxifene, raloxifene] |  | 1.63 ± 0.04 | 1.75 ± 0.13 | 1.41 ± 0.05 | 1.34 ± 0.11 | 0.99 ± 0.17 | blocking of the increase in CK activity caused by estradiol or peptides 1 and 2 ([2]; rats treated with combination with raloxifene): blocked in all the tissues with the exception of the epiphysis
5 | CC[C@H](C)[C@H](NC(=O)[C@@H](NC(=O)[C@H](CO)NC(=O)[C@H](CC(C)C)NC(=O)[C@H](Cc1ccccc1)NC(=O)[C@H](CCC(N)=O)NC(=O)[C@H](C)NC(=O)[C@H](CCC(N)=O)NC(=O)[C@H](CC(=O)O)NC(=O)[C@H](Cc1c[nH]c2ccccc12)NC(=O)[C@@H]1CCCN1C(=O)[C@H](Cc1c[nH]cn1)NC(=O)[C@H](CC(N)=O)NC(=O)[C@@H](N)C(C)C)[C@@H](C)O)C(=O)O [Peptide 3] (H-VNHPWDQAQFLSTI-OH) | ~100 |  |  |  |  |  | 
6 | CC(=O)[C@H]1CC[C@H]2[C@@H]3CCC4=CC(=O)CC[C@]4(C)[C@H]3CC[C@]12C [Progesterone, progesterone, reference compound] | < 0.001 |  |  |  |  |  | 
